The values below come from article PMC3973950, “Synthesis of 5-arylidine amino-1,3,4-thiadiazol-2-[(N-substituted benzyol)]sulphonamides endowed with potent antioxidants and anticancer activity induces growth inhibition in HEK293, BT474 and NCI-H226 cells” (Medicinal Chemistry Research, 2013).

Data set [1] in a line: In vitro cytotoxicity by MTT assay, NCI-H226. Format: cell-based. As to conditions: human, NCI-H226 lung cancer cells, 0.015 μM, read-out: % Cytotoxicity (100 − % cell survival) of NCI-H226 cell line. The method, boiled down:
(§1)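 Cells seeded at ~10,000/well in RPMI-1640 with 10 % newborn calf serum, grown 24 h, then exposed to compounds for 72 h at 37 °C, 5 % CO2. Viability read by MTT (4 h), formazan dissolved in propanol, absorbance at 490 nm.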
On the technique in general: Formazan colour is commonly taken as a measure of viable cells.

For data set [2], the system named is NCI-H226 (lung cancer cell line). Briefly: In vitro cytotoxicity by MTT assay, NCI-H226. Type of data set: cell-based. As to conditions: Homo sapiens, 72 h, read-out: % Cytotoxicity (100 − % cell survival) of NCI-H226 cell line; for cytotoxicity at 0.005 µM: NCI-H226, 0.005 μM; for cytotoxicity at 0.045 µM: NCI-H226, 0.045 μM; for cytotoxicity at 0.13 µM: NCI-H226, 0.13 μM; for cytotoxicity at 0.41 µM: NCI-H226, 0.41 μM; for cytotoxicity at 1.23 µM: NCI-H226, 1.23 μM; for cytotoxicity at 3.7 µM: NCI-H226, 3.7 μM; for cytotoxicity at 11.11 µM: NCI-H226, 11.11 μM; for cytotoxicity at 33.33 µM: NCI-H226, 33.33 μM; for cytotoxicity at 100 µM: NCI-H226, 100 μM. The method, boiled down: as §1

Data set [3] has as its system BT474 (breast cancer cell line). Put plainly: In vitro cytotoxicity by MTT assay, BT474. As to conditions: Homo sapiens, 72 h; for cytotoxicity at 0.005 µM: BT-474, 0.005 μM; for cytotoxicity at 0.005 µM / cytotoxicity at 0.015 µM / cytotoxicity at 0.045 µM / cytotoxicity at 0.13 µM / cytotoxicity at 0.41 µM / cytotoxicity at 1.23 µM / cytotoxicity at 3.7 µM / cytotoxicity at 11.11 µM / cytotoxicity at 33.33 µM / cytotoxicity at 100 µM: read-out: % cytotoxicity (100 − % cell survival) of BT474 cell line; for cytotoxicity at 0.015 µM: BT-474, 0.015 μM; for cytotoxicity at 0.045 µM: BT-474, 0.045 μM; for cytotoxicity at 0.13 µM: BT-474, 0.13 μM; for cytotoxicity at 0.41 µM: BT-474, 0.41 μM; for cytotoxicity at 1.23 µM: BT-474, 1.23 μM; for cytotoxicity at 3.7 µM: BT-474, 3.7 μM; for cytotoxicity at 11.11 µM: BT-474, 11.11 μM; for cytotoxicity at 33.33 µM: BT-474, 33.33 μM; for cytotoxicity at 100 µM: BT-474, 100 μM; for CC50: BT-474, BT474, concentration at which 50 % of the cells are dead, read-out: CTC50 (cytotoxicity concentration). Type of data set: cell-based. In a few lines: as §1

A short description of data set [4]: Nitric oxide radical scavenging (sodium nitroprusside, Griess reaction). Format: biochemical. As to conditions: Conc. ± SD; standard curcumin; read-out: IC50 inhibitory concentration, Nitric oxide radical. As for the experimental part: Nitric oxide generated from sodium nitroprusside in aqueous solution at physiological pH interacts with oxygen to produce nitrite ions, which were measured by the Griess reaction (Marcocci et al., [1994]; Green et al., [1982]). Scavenger of nitric oxide competes with oxygen leading to reduced production of nitric oxide (Mondal et al., [2006]). The reaction mixture (3 mL) containing sodium nitroprusside (10 mM) in phosphate-buffered saline (PBS) and the compounds in different concentrations (10, 20, 30, 40, 50 and 100 μg) were incubated at 25 °C for 150 min. At every 30-min interval, the incubated sample (0.5 mL) was removed and Griess reagent (1 % sulphanilamide, 0.1 % naphthylethylene diamine dihydrochloride in 2 % H3PO4) (0.5 mL) was added. The absorbance of the chromophore formed was measured at 546 nm. All the analyses were performed in triplicate, and the results were averaged. The percentage inhibition of nitric oxide generated was measured by comparing the absorbance values of control and test.
A general note: Griess reagent forms a coloured azo dye with nitrite.

Regarding `O=C(NS(=O)(=O)c1nnc(N=Cc2ccccc2)s1)c1ccccc1` [Compound 9a, N-{[5-(Benzylidenamino)-1,3,4-thiadiazol-2-yl]sulphonyl} benzamide], the cytotoxicity at 72 h, 0.015 µM in data set [1] came to 34.8%. In addition, in data set [2], the cytotoxicity at 0.005 µM was 33.3%, the cytotoxicity at 0.045 µM turned out to be 35.3%, the cytotoxicity at 0.13 µM is 36.1% and the cytotoxicity at 0.41 µM stood at 37%. Besides, in data set [2], the cytotoxicity at 1.23 µM stood at 37.9%, the cytotoxicity at 3.7 µM amounted to 38.1%, the cytotoxicity at 11.11 µM amounted to 39.1% and the cytotoxicity at 33.33 µM turned out to be 41.1%. Also, in data set [2], the cytotoxicity at 100 µM was 42.4%. Further, in data set [3], the cytotoxicity at 0.005 µM turned out to be 35.3%, the cytotoxicity at 0.015 µM worked out at 35.8%, the cytotoxicity at 0.045 µM was 36.4% and the cytotoxicity at 0.13 µM was 37%. In data set [3], the cytotoxicity at 0.41 µM was determined as 38%, the cytotoxicity at 1.23 µM stood at 39%, the cytotoxicity at 3.7 µM was determined as 40.2% and the cytotoxicity at 11.11 µM was 40.6%. For the same compound, in data set [3], the cytotoxicity at 33.33 µM amounted to 41.5% and the cytotoxicity at 100 µM is 66%. Besides, the IC50 in data set [4] amounted to 104 ± 7.5 µM.
In the case of `O=C(NS(=O)(=O)c1nnc(N=Cc2ccc(Cl)cc2)s1)c1ccccc1` [Compound 9b, N-({5-[(4-Chlorobenzylidene)amino]-1,3,4-thiadiazol-2-yl}sulfonyl)benzamide], the cytotoxicity at 72 h, 0.015 µM in data set [1] was 29.5%. Further, in data set [2], the cytotoxicity at 0.005 µM amounted to 27.8%, the cytotoxicity at 0.045 µM is 35.4%, the cytotoxicity at 0.13 µM was 35.7% and the cytotoxicity at 0.41 µM came out at 36.1%. For the same compound, in data set [2], the cytotoxicity at 1.23 µM came out at 36.5%, the cytotoxicity at 3.7 µM was 36.6%, the cytotoxicity at 11.11 µM amounted to 37% and the cytotoxicity at 33.33 µM is 37.7%. The cytotoxicity at 100 µM in data set [2] is 38%. Besides, in data set [3], the cytotoxicity at 0.005 µM came to 38.8%, the cytotoxicity at 0.015 µM is 39.4%, the cytotoxicity at 0.045 µM amounted to 41.5% and the cytotoxicity at 0.13 µM came to 42%. Further, in data set [3], the cytotoxicity at 0.41 µM was 46.1%, the cytotoxicity at 1.23 µM was determined as 50.1%, the cytotoxicity at 3.7 µM is 56.3% and the cytotoxicity at 11.11 µM is 60.7%. In data set [3], the cytotoxicity at 33.33 µM is 62.3%, the cytotoxicity at 100 µM is 65% and the CC50 was found to be 2.41 µM. In data set [4], the IC50 was determined as 52.6 ± 16.7 µM.
On to `COc1ccccc1C=Nc1nnc(S(=O)(=O)NC(=O)c2ccccc2)s1` [Compound 9c, N-({5-[(2-Methoxybenzylidene)amino]-1,3,4-thiadiazol-2-yl}sulfonyl)benzamide], for which the cytotoxicity at 72 h, 0.015 µM in data set [1] came to 33.2%. In addition, in data set [2], the cytotoxicity at 0.005 µM stood at 31.5%, the cytotoxicity at 0.045 µM stood at 34.1%, the cytotoxicity at 0.13 µM stood at 35.1% and the cytotoxicity at 0.41 µM amounted to 35.9%. Moreover, in data set [2], the cytotoxicity at 1.23 µM worked out at 36.1%, the cytotoxicity at 3.7 µM is 37.7%, the cytotoxicity at 11.11 µM worked out at 38.2% and the cytotoxicity at 33.33 µM came to 40.3%. Moreover, in data set [2], the cytotoxicity at 100 µM was 43.5%. Also, in data set [3], the cytotoxicity at 0.005 µM amounted to 38.1%, the cytotoxicity at 0.015 µM came to 41.5%, the cytotoxicity at 0.045 µM was 42.6% and the cytotoxicity at 0.13 µM worked out at 44.4%. In data set [3], the cytotoxicity at 0.41 µM came out at 47%, the cytotoxicity at 1.23 µM is 50.4%, the cytotoxicity at 3.7 µM was determined as 53.6% and the cytotoxicity at 11.11 µM was 54.8%. Also, in data set [3], the cytotoxicity at 33.33 µM was 58.8%, the cytotoxicity at 100 µM turned out to be 67.1% and the CC50 stood at 0.794 µM. Also, the IC50 in data set [4] is 81.9 ± 10.4 µM.
For `COc1ccc(C=Nc2nnc(S(=O)(=O)NC(=O)c3ccccc3)s2)cc1` [Compound 9d, N-({5-[(4-Methoxybenzylidene)amino]-1,3,4-thiadiazol-2-yl}sulfonyl)benzamide], in data set [1], the cytotoxicity at 72 h, 0.015 µM worked out at 36.3%. Also, in data set [2], the cytotoxicity at 0.005 µM was determined as 35.6%, the cytotoxicity at 0.045 µM worked out at 37.5%, the cytotoxicity at 0.13 µM stood at 38.3% and the cytotoxicity at 0.41 µM is 40.6%. Moreover, in data set [2], the cytotoxicity at 1.23 µM came to 41.2%, the cytotoxicity at 3.7 µM was 43.1%, the cytotoxicity at 11.11 µM is 47.8% and the cytotoxicity at 33.33 µM was 48.2%. In addition, the cytotoxicity at 100 µM in data set [2] was 53%. Also, in data set [3], the cytotoxicity at 0.005 µM amounted to 33.3%, the cytotoxicity at 0.015 µM was determined as 33.4%, the cytotoxicity at 0.045 µM is 33.5% and the cytotoxicity at 0.13 µM amounted to 34%. Besides, in data set [3], the cytotoxicity at 0.41 µM was found to be 34.2%, the cytotoxicity at 1.23 µM is 36.8%, the cytotoxicity at 3.7 µM was determined as 36.8% and the cytotoxicity at 11.11 µM amounted to 37.4%. In addition, in data set [3], the cytotoxicity at 33.33 µM came to 38% and the cytotoxicity at 100 µM came to 39.4%. Moreover, in data set [4], the IC50 was determined as 53 ± 6.74 µM.
Turning to `COc1cc(C=Nc2nnc(S(=O)(=O)NC(=O)c3ccccc3)s2)ccc1O` [Compound 9g, N-({5-[(4-Hydroxy-3-methoxybenzylidene)amino]-1,3,4-thiadiazol-2-yl}sulfonyl)benzamide], in data set [1], the cytotoxicity at 72 h, 0.015 µM was 33.2%. In addition, in data set [2], the cytotoxicity at 0.005 µM turned out to be 32.7%, the cytotoxicity at 0.045 µM was 34.1%, the cytotoxicity at 0.13 µM was found to be 35.1% and the cytotoxicity at 0.41 µM worked out at 36.3%. Further, in data set [2], the cytotoxicity at 1.23 µM came to 37.5%, the cytotoxicity at 3.7 µM is 38.6%, the cytotoxicity at 11.11 µM was found to be 39.2% and the cytotoxicity at 33.33 µM was found to be 39.8%. Besides, the cytotoxicity at 100 µM in data set [2] was found to be 42.5%. Further, in data set [3], the cytotoxicity at 0.005 µM amounted to 27.4%, the cytotoxicity at 0.015 µM stood at 28%, the cytotoxicity at 0.045 µM worked out at 28.7% and the cytotoxicity at 0.13 µM came out at 29.2%. Besides, in data set [3], the cytotoxicity at 0.41 µM came out at 31.4%, the cytotoxicity at 1.23 µM amounted to 32.8%, the cytotoxicity at 3.7 µM came out at 33.2% and the cytotoxicity at 11.11 µM was 34.7%. Further, in data set [3], the cytotoxicity at 33.33 µM worked out at 36.2% and the cytotoxicity at 100 µM stood at 38.1%.
As to `CN(C)c1ccc(C=Nc2nnc(S(=O)(=O)NC(=O)c3ccccc3)s2)cc1` [Compound 9h, N-[(5-{[4-(Dimethylamino)benzylidene]amino}-1,3,4-thiadiazol-2-yl)sulfonyl]benzamide], the cytotoxicity at 72 h, 0.015 µM in data set [1] was 35%. In data set [2], the cytotoxicity at 0.005 µM is 32.9%, the cytotoxicity at 0.045 µM was found to be 35.4%, the cytotoxicity at 0.13 µM was determined as 36.3% and the cytotoxicity at 0.41 µM is 36.4%. Moreover, in data set [2], the cytotoxicity at 1.23 µM was found to be 37.2%, the cytotoxicity at 3.7 µM is 37.5%, the cytotoxicity at 11.11 µM stood at 37.9% and the cytotoxicity at 33.33 µM was 39.2%. Also, the cytotoxicity at 100 µM in data set [2] came out at 40%. In addition, in data set [3], the cytotoxicity at 0.005 µM worked out at 29%, the cytotoxicity at 0.015 µM turned out to be 29.1%, the cytotoxicity at 0.045 µM came out at 30.6% and the cytotoxicity at 0.13 µM came out at 32.9%. Moreover, in data set [3], the cytotoxicity at 0.41 µM worked out at 33.8%, the cytotoxicity at 1.23 µM turned out to be 34.2%, the cytotoxicity at 3.7 µM turned out to be 35.2% and the cytotoxicity at 11.11 µM was determined as 38.4%. Also, in data set [3], the cytotoxicity at 33.33 µM came to 41.5% and the cytotoxicity at 100 µM turned out to be 47.7%.
